Experimental data from publication PMC11519904, “Comprehensive Cell Biological Investigation of Cytochalasin B Derivatives with Distinct Activities on the Actin Network” (Journal of Natural Products, 2024).
Entries after “also recorded” stand apart in the source; their conditions may differ. Like-named read-outs stand apart in the source and are kept apart here.

Assays:
U-2OS cells = assay: Cell proliferation assay (Incucyte), 24 h treatment and 47 h recovery; type: cell-based, human; details: 24 h 5 x IC50 treatment
Protocol: U-2OS cells were seeded into fibronectin-coated (25 μg/mL) 96-well plate wells at densities of 3700 cells/well and allowed to spread overnight at 37 °C and 7.5% CO2. Cells were treated with 5 × IC50 concentrations of desired compounds for 24 h, washed twice with prewarmed PBS, and cultured in complete medium for further 47 h. Cells were recorded immediately after compound addition over the course of the experiment using an Incucyte S3 live-cell analysis system (Sartorius, Göttingen, Germany) with a 20 × objective at 37 °C and 5% CO2. Three phase contrast images per well and three wells per treatment were captured every hour for 71 h. The quantification of phase object counts was accomplished with the Adherent Cell-by-Cell analysis module of the IncuCyte S3 Live Cell Analysis Software and normalized to the average, respective initial phase contrast count. Graphical presentation of the data and ordinary one-way ANOVA followed by Dunnett’s multiple comparisons test was performed using GraphPad Prism version 8.4.3 for Windows, GraphPad Software (Boston, MA, USA, www.graphpad.com).

[1] = system: KB3.1 (human cervix carcinoma); assay: Cytotoxicity assay (MTT), KB3.1; type: cell-based; details: 5 days of incubation, MTT, read-out: IC50 KB3.1
Protocol: The cytotoxicity assay was implemented in 96-well flat-bottom microtiter plates following a reported procedure.[21],[22],[33] The mammalian cell lines L929 (mouse fibroblast) and KB3.1 (human cervix carcinoma) were cultivated at 37 °C and 10% CO2 in Dulbecco’s modified minimum essential medium (DMEM, Life Technologies, Carlsbad, CA, USA) supplemented with 10% fetal bovine serum (FBS, Life Technologies). The microtiter plate was filled with 120 μL of suspended cells (50,000/mL), and 60 μL of a serial dilution of the test compound was added. After 5 days of incubation, growth inhibition (IC50) was determined by a colorimetric tetrazolium dye MTT assay.[34] The compounds were dissolved in MeOH (1 mg/mL), MeOH was used as negative control, and epothilone[35] (1 mg/mL) was used as positive control.

Structure (SMILES) | cell proliferation / recovery after washout (U-2OS cells) | IC50 [1] | IC50 ([1]; Homo sapiens, KB 3-1, 120 h)
C=C1[C@@H](C)[C@H]2[C@H](Cc3ccccc3)NC(=O)[C@]23OC(=O)/C=C/[C@H](O)CCC[C@@H](C)C/C=C/[C@H]3[C@@H]1OC(C)=O [Compound 3, 7-O-acetyl cytochalasin B] | significantly diminished; also recorded: completely abolished |  | 
C=C1[C@@H](C)[C@H]2[C@H](Cc3ccccc3)N(C(C)=O)C(=O)[C@]23OC(=O)/C=C/[C@H](O)CCC[C@@H](C)C/C=C/[C@H]3[C@@H]1O [Compound 5, N-acetyl cytochalasin B] |  | 7.9 µM | 4.8 to 9.4 µM
